One test concerns Streptococcus mutans. Put plainly: Minimal inhibitory concentration (MIC) by broth dilution and checkerboard titration of combinations. In kind it is cell-based. The procedure:
(§1) The minimal inhibitory concentration (MIC) of the test compound is the minimum concentration of compound required to inhibit growth of the test microorganism. The MIC is determined by serially diluting the test solution through tubes of sterile broth. The tubes are inoculated and incubated at 37°C for 48 hours. At the end of the incubation time, growth is checked macroscopically. The lowest concentration of test compound to inhibit growth is the MIC. This technique is used to assess antimicrobial activity of combinations. The checkerboard is the pattern found by multiple combinations of two agents in concentrations equal to, above and below their minimal inhibitory concentration for the microorganism tested against. The checkerboard consists of columns which contain the same amount of one agent which is diluted along the x-axis and rows which each contain the same amount of the second agent diluted along the y-axis. Thus each tube is a unique combination of the two agents. […] A method for illustrating the effect of the combination of the two agents is obtained by plotting the MIC's of each agent alone and the MIC's for these agents in combination. Antimicrobial synergy is indicated if the MIC's for the agents in combination are lower than the MIC's for the agents alone.

Test [1] relates to Bacteroides melaninogenicus. The description is as above. In kind it is cell-based. The procedure: as §1
The mark [2] stands for this setting: S. mutans, agent alone (other agent 0), Table VII.
[3] abbreviates: B. melaninogenicus, agent alone (other agent 0), Table VII.
[4] abbreviates: S. mutans, agent alone (other agent 0), second table of Example XI, comparative.
The mark [5] stands for this setting: B. melaninogenicus, agent alone (other agent 0), second table of Example XI, comparative.
Where [6] appears, read: S. mutans, agent alone (other agent 0), Table IX.
The mark [7] stands for this setting: S. mutans, agent alone (other agent 0), Table X.
Setting [8] is: S. mutans, agent alone (other agent 0), Table XI, comparative.
Setting [9] is: B. melaninogenicus, agent alone (other agent 0), Table IX.
Where [10] appears, read: B. melaninogenicus, agent alone (other agent 0), Table X.
Where [11] appears, read: B. melaninogenicus, agent alone (other agent 0), Table XI, comparative.

On to `CCCCCCCCCCCCOCC(O)CO` (racemic) [1-0-dodecyl-rac-glycerol, reference compound], for which the “Minimum Inhibitory Concentration” value in the test on Streptococcus mutans (setting [2]) was 10 miligrams/liter; in the test on Streptococcus mutans (S. mutans, in combination with 4 miligrams/liter morpholinoamino alcohol HCl), 6 miligrams/liter; in the test with Streptococcus mutans (S. mutans, in combination with 100 miligrams/liter morpholinoamino alcohol HCl) it was 2 miligrams/liter; in test [1] (setting [3]) it was 10 miligrams/liter; in test [1] (B. melaninogenicus, in combination with 4 miligrams/liter morpholinoamino alcohol HCl), 6 miligrams/liter; in test [1] (B. melaninogenicus, in combination with 20 miligrams/liter morpholinoamino alcohol HCl), 2 miligrams/liter.
On to `OCc1ccc(Cl)cc1Cl` [2,4-dichloro-alcohol, 2,4-dichlorobenzyl alcohol, reference compound], for which the “Minimum Inhibitory Concentration” value stood at 50 milligrams/liter with Streptococcus mutans (setting [4]); 50 milligrams/liter in the test on Streptococcus mutans (S. mutans, in combination with 50 milligrams/liter morpholinoamino alcohol HCl, the 12th table); 50 milligrams/liter in the test with Streptococcus mutans (S. mutans, in combination with 100 milligrams/liter morpholinoamino alcohol HCl, the 12th table); 100 milligrams/liter in test [1] (setting [5]); 100 milligrams/liter in test [1] (B. melaninogenicus, in combination with 50 milligrams/liter morpholinoamino alcohol HCl, the 12th table); 100 milligrams/liter in test [1] (B. melaninogenicus, in combination with 100 milligrams/liter morpholinoamino alcohol HCl, the 12th table).
On to `CCCC(CCC)CCCC1COCCN1CCO.Cl` (stereo not drawn) [3-(4-propylheptyl)-4-(2-hydroxyethyl) morpholine hydrochloride], for which the “Minimum Inhibitory Concentration” value with Streptococcus mutans (S. mutans (ATCC 2517S), agent alone (other agent 0), Table VIII) amounted to 200 milligrams/liter; in the test with Streptococcus mutans (setting [6]), 200 milligrams/liter; in the test with Streptococcus mutans (setting [2]) it was 200 miligrams/liter; in the test with Streptococcus mutans (setting [7]), 200 milligrams/liter; in the test on Streptococcus mutans (setting [8]), 200 milligrams/liter; in the test on Streptococcus mutans (setting [4]), 200 milligrams/liter. The “Minimum Inhibitory Concentration” value with Streptococcus mutans (S. mutans, in combination with 0.25 milligrams/liter hexitidine (row with 50 morpholinoamino alcohol HCl)) was found to be 50 milligrams/liter; in the test on Streptococcus mutans (S. mutans, in combination with 0.25 milligrams/liter hexitidine (row with 100 morpholinoamino alcohol HCl)), 100 milligrams/liter; with Streptococcus mutans (S. mutans, in combination with 0.5 milligrams/liter domiphen bromide) it was 100 milligrams/liter; with Streptococcus mutans (S. mutans, in combination with 1.0 milligrams/liter domiphen bromide) it was 50 milligrams/liter; in the test on Streptococcus mutans (S. mutans, in combination with 2 miligrams/liter 1-0-dodecyl-rac-glycerol), 100 miligrams/liter; with Streptococcus mutans (S. mutans, in combination with 6 miligrams/liter 1-0-dodecyl-rac-glycerol), 4 miligrams/liter. Moreover, the “Minimum Inhibitory Concentration” value in the test with Streptococcus mutans (S. mutans, in combination with 10 milligrams/liter amyl-m-cresol (row with 50 morpholinoamino alcohol HCl)) is 50 milligrams/liter; in the test on Streptococcus mutans (S. mutans, in combination with 10 milligrams/liter amyl-m-cresol (row with 100 morpholinoamino alcohol HCl)), 100 milligrams/liter; in the test with Streptococcus mutans (S. mutans, in combination with 50 milligrams/liter 2, 4-dichloro-alcohol (row with 50 morpholinoamino alcohol HCl)), 50 milligrams/liter; with Streptococcus mutans (S. mutans, in combination with 50 milligrams/liter 2, 4-dichloro-alcohol (row with 100 morpholinoamino alcohol HCl)), 100 milligrams/liter; in the test with Streptococcus mutans (S. mutans, in the absence of the dodecyl glycerol), 200 milligrams per liter; in test [1] (B. melaninogenicus (J18M2), agent alone (other agent 0), Table VIII) it was 200 milligrams/liter. The “Minimum Inhibitory Concentration” value is on record as 100 milligrams/liter in test [1] (B. melaninogenicus (J18M2), in combination with 0.003 milligrams/liter cetyl pyridinium chloride); 50 milligrams/liter in test [1] (B. melaninogenicus (J18M2), in combination with 0.006 milligrams/liter cetyl pyridinium chloride); 200 milligrams/liter in test [1] (setting [9]); 200 miligrams/liter in test [1] (setting [3]); 200 milligrams/liter in test [1] (setting [10]); 200 milligrams/liter in test [1] (setting [11]). Moreover, the “Minimum Inhibitory Concentration” value came to 200 milligrams/liter in test [1] (setting [5]); 100 milligrams/liter in test [1] (B. melaninogenicus, in combination with 0.125 milligrams/liter hexitidine); 50 milligrams/liter in test [1] (B. melaninogenicus, in combination with 0.25 milligrams/liter hexitidine); 20 miligrams/liter in test [1] (B. melaninogenicus, in combination with 2 miligrams/liter 1-0-dodecyl-rac-glycerol); 100 milligrams/liter in test [1] (B. melaninogenicus, in combination with 2.5 milligrams/liter amyl-m-cresol); 4 miligrams/liter in test [1] (B. melaninogenicus, in combination with 6 miligrams/liter 1-0-dodecyl-rac-glycerol). The “Minimum Inhibitory Concentration” value in test [1] (B. melaninogenicus, in combination with 6.25 milligrams/liter domiphen bromide) was determined as 100 milligrams/liter; in test [1] (B. melaninogenicus, in combination with 10 milligrams/liter amyl-m-cresol), 50 milligrams/liter; in test [1] (B. melaninogenicus, in combination with 12.5 milligrams/liter domiphen bromide), 50 milligrams/liter; in test [1] (B. melaninogenicus, in combination with 100 milligrams/liter 2, 4-dichloro-alcohol (row with 50 morpholinoamino alcohol HCl)), 50 milligrams/liter; in test [1] (B. melaninogenicus, in combination with 100 milligrams/liter 2, 4-dichloro-alcohol (row with 100 morpholinoamino alcohol HCl)) it was 100 milligrams/liter; in test [1] (B. melaninogenicus, in the absence of the dodecyl glycerol), 200 milligrams per liter.
For `CCCCCc1ccc(C)cc1O` [amyl-m-cresol, reference compound], the “Minimum Inhibitory Concentration” value with Streptococcus mutans (setting [8]) was 10 milligrams/liter; in the test with Streptococcus mutans (S. mutans, in combination with 50 milligrams/liter morpholinoamino alcohol HCl, Table XI) it was 10 milligrams/liter; with Streptococcus mutans (S. mutans, in combination with 100 milligrams/liter morpholinoamino alcohol HCl, Table XI), 10 milligrams/liter; in test [1] (setting [11]), 10 milligrams/liter; in test [1] (B. melaninogenicus, in combination with 50 milligrams/liter morpholinoamino alcohol HCl, Table XI), 10 milligrams/liter; in test [1] (B. melaninogenicus, in combination with 100 milligrams/liter morpholinoamino alcohol HCl, Table XI) it was 2.5 milligrams/liter.
For `CCCCCCCCCCCC[N+](C)(C)CCOc1ccccc1` [domiphen bromide, reference compound], the “Minimum Inhibitory Concentration” value worked out at 1.0 milligrams/liter in the test with Streptococcus mutans (setting [6]); 1.0 milligrams/liter in the test with Streptococcus mutans (S. mutans, in combination with 50 milligrams/liter morpholinoamino alcohol HCl, Table IX); 0.5 milligrams/liter in the test with Streptococcus mutans (S. mutans, in combination with 100 milligrams/liter morpholinoamino alcohol HCl, Table IX); 50 milligrams/liter in test [1] (setting [9]); 12.5 milligrams/liter in test [1] (B. melaninogenicus, in combination with 50 milligrams/liter morpholinoamino alcohol HCl, Table IX); 6.25 milligrams/liter in test [1] (B. melaninogenicus, in combination with 100 milligrams/liter morpholinoamino alcohol HCl, Table IX).
Take `CCCCC(CC)CN1CN(CC(CC)CCCC)CC(C)(N)C1` (stereo not drawn) [hexitidine, hexetidine, reference compound]: the “Minimum Inhibitory Concentration” value amounted to 1.0 milligrams/liter in the test on Streptococcus mutans (setting [7]); 0.25 milligrams/liter in the test on Streptococcus mutans (S. mutans, in combination with 50 milligrams/liter morpholinoamino alcohol HCl, Table X); 0.25 milligrams/liter in the test on Streptococcus mutans (S. mutans, in combination with 100 milligrams/liter morpholinoamino alcohol HCl, Table X); 1.0 milligrams/liter in test [1] (setting [10]); 0.25 milligrams/liter in test [1] (B. melaninogenicus, in combination with 50 milligrams/liter morpholinoamino alcohol HCl, Table X); 0.125 milligrams/liter in test [1] (B. melaninogenicus, in combination with 100 milligrams/liter morpholinoamino alcohol HCl, Table X).

These data come from patent EP0510151B1, “IMPROVED ANTI-PLAQUE COMPOSITIONS COMPRISING A COMBINATION OF MORPHOLINOAMINO ALCOHOL AND ANTI-MICROBIAL AGENT” (Pharmacia AB, priority 1990, dated 1992).
